Data on three compounds can be found in ChEMBL document CHEMBL6109069 (J Med Chem, 2025).

pIC50, pKi: −log10 of the molar value. Activity calls are given as the source filed them. No cut-off for these calls is given here. Starred links: 1 amine or outer side, 2 acyl side, 3 side chain; linkers in the order of their positions; H or OH if unused. Non-standard residues stand in square brackets, D forms with d. Residues, ends and D or L forms follow the SMILES beside them. *: point of attachment. X1 = CCC(=O)C[C@@H](O)C[C@@H](C)C[C@H](N[*:1])C(=O)[*:2]; Hexenoyl(2E,4S-Me) = CC[C@H](C)/C=C/C(=O)*; Leu(3R-OH) = CC(C)[C@@H](O)[C@H](N)C(=O)O; NH((S)CH(Me)CH2NMe2) = C[C@@H](CN(C)C)N*; Pro(4S-Me) = C[C@@H]1CN[C@H](C(=O)O)C1; NH(1-CH2NMe2-cBu) = CN(C)CC1(N*)CCC1; Benzoyl(4-F) = O=C(c1ccc(F)cc1)*; hCha = N[C@@H](CCC1CCCCC1)C(=O)O; Aib = CC(C)(N)C(=O)O; βAla = NCCC(=O)O

The term pIC50 denotes the IC50 on a negative log10 scale, so that one unit is a factor of ten. Broadly, the pKi is the Ki on a negative log10 scale, so that one unit is a factor of ten. The LD50 is the dose expected to kill half of the subjects tested. For orientation: IC50 means the concentration that inhibits the measured activity by half.

One series deals with Trypanosoma cruzi. The series can be described thus: Antitrypanosomal activity against Trypanosoma cruzi Tulahuen C4 incubated for 4 days. It counts as functional, organism-based. To be noted: Tulahuen C4, 96 h.
The subject of the next series is Plasmodium falciparum. Nature of the series: Antiplasmodial activity against Plasmodium falciparum NF54 incubated for 48 hrs. The series is classed as functional, organism-based. To be noted: NF54, 48 h.
The test system of series [1] is Lipid bilayer. The series can be described thus: Disruption of membrane integrity in bacterial cell membrane mimic POPC/POPG LUVs assessed as calcein leakage at 1.3 uM measured for 1 mins by fluorescence spectroscopy analysis.
Series [2] has as its system Mitochondrial membrane. The series can be described thus: Induction of mitochondrial membrane potential in bovine heart assessed as change in fluorescence intensity at 200 nM by safranin O staining based eclipse fluorescence spectrophotometric analysis. It counts as cell membranes. The note with it: Bos taurus.
Series [3] in a line: Reduction in respiration rate in human Fibroblast cells assessed as decrease in coupling efficiency at 50 nM incubated up to 80 mins. The series is classed as functional. The note with it: 1.333 h. Set-up: scale not given: the % may be the effect or the level left.
The subject of another series is Leishmania donovani. Nature of the series: Antitrypanosomal activity against Leishmania donovani MHOM/ET/67/L82 incubated for 72 hrs by resazurin staining based analysis. To be noted: MHOM/ET/67/L82, 72 h. The series is classed as functional, organism-based.
In series [4] the test system is Mitochondrial membrane. The series can be described thus: Induction of mitochondrial membrane depolarization in bovine heart assessed as change in fluorescence intensity at 25 nM by safranin O staining based eclipse fluorescence spectrophotometric analysis. The series is classed as cell membranes. The note with it: Bos taurus.
The test system of series [5] is Mitochondrial membrane. Nature of the series: Induction of mitochondrial membrane depolarization in bovine heart assessed as change in fluorescence intensity at 100 to 200 nM by safranin O staining based eclipse fluorescence spectrophotometric analysis. The series is classed as cell membranes. The note with it: Bos taurus, dose 100-200 nM.
The test system of series [6] is Trypanosoma brucei rhodesiense. The series can be described thus: Antitrypanosomal activity against Trypanosoma brucei rhodesiense STIB 900. The series is classed as functional, organism-based.
Series [7] deals with Fibroblast. Nature of the series: Induction of mitochondrial uncoupling activity in human Fibroblast cells assessed as increase in oxygen consumption rate by measuring fluorescence intensity at 25 nM measured up to 80 mins by O2k-type oxygraph analysis. It counts as functional, cell-based.
Series [8] is described as follows: Inhibition of Bovine heart ATP synthase assessed as inhibition constant by Michaelis-Menten plot analysis. To be noted: read-out: Ki. Also noted: species or system Bos taurus.
In series [9] the test system is Lipid bilayer. The series can be described thus: Disruption of membrane integrity in bacterial cell membrane mimic POPC/POPG LUVs assessed as HTPS leakage at 5 uM measured after 1 mins.
Series [10] deals with Trypanosoma brucei. Nature of the series: Induction of mitochondrial uncoupling activity in Trypanosoma brucei assessed as increase in oxygen consumption rate by measuring fluorescence intensity at 25 nM measured up to 80 mins by O2k-type oxygraph analysis. It counts as functional, organism-based.
Series [11] is described as follows: Inhibition of Escherichia coli ATP synthase assessed as inhibition constant.
Series [12] can be described thus: Toxicity in ip dosed mouse assessed as lethal dose. It counts as organism-based. To be noted: in vivo.
Series [13] in a line: Toxicity in po dosed mouse assessed as lethal dose. It counts as organism-based. The note with it: in vivo.
Series [14] has as its system Lipid bilayer. Nature of the series: Disruption of membrane integrity in bacterial cell membrane mimic POPC/POPG LUVs assessed as HTPS leakage at 5 uM measured for 1 mins by fluorescence spectroscopy analysis.
Series [15] in a line: Cytotoxicity against rat L6 cells. The series is classed as toxicity, cell-based.
Series [16] in a line: Inhibition of yeast ATP synthase assessed as inhibition constant by Michaelis-Menten plot analysis. Set-up: species or system Saccharomyces cerevisiae.
The subject of series [17] is Trypanosoma brucei. Nature of the series: Induction of mitochondrial uncoupling activity in Trypanosoma brucei assessed as increase in oxygen consumption rate by measuring fluorescence intensity by O2k-type oxygraph analysis. It counts as functional, organism-based.
For series [18], the system named is Fibroblast. Nature of the series: Inhibition of ATP synthase in human Fibroblast cells assessed as decrease in oxygen consumption at 50 nM by OROBOROS instrument based analysis. It counts as cell-based.
In series [19] the test system is Lipid bilayer. The series can be described thus: Disruption of membrane integrity in bacterial cell membrane mimic POPC/POPG LUVs assessed as HTPS leakage at 1 uM measured for 1 mins by fluorescence spectroscopy analysis.
Series [20] is described as follows: Cytotoxicity against rat L6 cells assessed as cell viability. It counts as toxicity, cell-based.
The subject of series [21] is Mitochondrial membrane. The series can be described thus: Induction of mitochondrial membrane hyperpolarization in bovine heart assessed as change in fluorescence intensity at 25 nM by safranin O staining based eclipse fluorescence spectrophotometric analysis. To be noted: Bos taurus. The series is classed as cell membranes.
For series [22], the system named is Fibroblast. Nature of the series: Induction of mitochondrial uncoupling activity in human Fibroblast cells assessed as increase in oxygen consumption rate by measuring fluorescence intensity by O2k-type oxygraph analysis. It counts as functional, cell-based.
The subject of series [23] is Fibroblast. The series can be described thus: Reduction in respiration rate in human Fibroblast cells assessed as decrease in coupling efficiency at > 200 nM incubated up to 60 mins. The series is classed as functional, cell-based.
The species entered for the next series is Bos taurus. Nature of the series: Potency index, ratio of Leucinostatin A Ki to test compound Ki for inhibition of Bovine heart ATP synthase.
Series [24] deals with Trypanosoma brucei rhodesiense. The series can be described thus: Antitrypanosomal activity against Trypanosoma brucei rhodesiense STIB 900 incubated for 72 hrs by resazurin staining based analysis. The series is classed as functional, organism-based. The note with it: STIB 900, 72 h. In general terms: The colour change of resazurin is a common sign of viable cells or microbes.

Series [25] in a line: Cytotoxicity against rat L6 cells assessed as cell viability incubated for 72 hrs by CCK-8 assay. (Tetrazolium assays rely on reduction of a dye to a coloured formazan, in cell work by metabolically active cells.)

In the case of `CC(C)C[C@H](NC(=O)[C@H](CCC1CCCCC1)NC(=O)[C@@H]1CCCN1C(=O)c1ccc(F)cc1)C(=O)NC(C)(C)C(=O)N[C@@H](CC(C)C)C(=O)N[C@@H](CC(C)C)C(=O)NC(C)(C)C(=O)NC(C)(C)C(=O)NCCC(=O)NC1(CN(C)C)CCC1` ({Benzoyl(4-F)}-P[hCha]L[Aib]LL[Aib][Aib][βAla]-{NH(1-CH2NMe2-cBu)}), the pIC50 is 6.94 in the series with Trypanosoma cruzi, 8.27 with Plasmodium falciparum, 8.31 in the series on Leishmania donovani and 9.41 in series [6]. The result in the series with Lipid bilayer [1], with Mitochondrial membrane [2], in the series on Mitochondrial membrane [4], with Mitochondrial membrane [5] and in the series on Lipid bilayer [9] was Active. In series [3], the Activity was roughly 3%. For the same compound, the result in the series on Fibroblast [7] and in the series on Trypanosoma brucei [10] was inactive. The pKi in [8] was 6.58; in [11] it was roughly 6.59.

As to `CCC(=O)C[C@@H](O)C[C@@H](C)C[C@H](NC(=O)[C@@H]1C[C@H](C)CN1C(=O)/C=C/[C@@H](C)CC)C(=O)N[C@H](C(=O)NC(C)(C)C(=O)N[C@@H](CC(C)C)C(=O)N[C@@H](CC(C)C)C(=O)NC(C)(C)C(=O)NC(C)(C)C(=O)NCCC(=O)N[C@@H](C)CN(C)C)[C@H](O)C(C)C` ({Hexenoyl(2E,4S-Me)}-[Pro(4S-Me)][X1][Leu(3R-OH)][Aib]LL[Aib][Aib][βAla]-{NH((S)CH(Me)CH2NMe2)}), the pIC50 in the series with Trypanosoma cruzi is 7.64; with Plasmodium falciparum it was 9.21; with Leishmania donovani, 8.96; in series [15] it was 6.59; in series [6], 9.60; in series [20] it was 6.59. For the same compound, the LD50 in series [12] came out at 1.8 mg/kg; in [13], 5.4 mg/kg. Also, the outcome in the series with Lipid bilayer [1], in the series on Trypanosoma brucei [17], with Mitochondrial membrane [21] and with Fibroblast [22] was Active. In addition, in series [3], the Activity is recorded as roughly 60%. Moreover, the result with Lipid bilayer [14] and in the series with Lipid bilayer [19] was inactive. Besides, the pKi in series [8] was 7.10; in [16] it was roughly 7.52; in [11] it was less than 6.00. Moreover, in the series on Fibroblast [18], the inhibition result was “Active”.

As for `CC[C@H](C)/C=C/C(=O)N1C[C@@H](C)C[C@H]1C(=O)N[C@@H](CCC1CCCCC1)C(=O)N[C@H](C(=O)NC(C)(C)C(=O)N[C@@H](CC(C)C)C(=O)N[C@@H](CC(C)C)C(=O)NC(C)(C)C(=O)NC(C)(C)C(=O)NCCC(=O)N[C@@H](C)CN(C)C)[C@H](O)C(C)C` ({Hexenoyl(2E,4S-Me)}-[Pro(4S-Me)][hCha][Leu(3R-OH)][Aib]LL[Aib][Aib][βAla]-{NH((S)CH(Me)CH2NMe2)}), the pIC50 was 6.56 with Trypanosoma cruzi, 9.33 with Plasmodium falciparum, 8.92 in the series with Leishmania donovani and 9.47 in series [24]. For the same compound, in the series on Fibroblast [23], the outcome was Active. In series [8], the negative-log Ki (pKi) was 7.66. The Ratio Ki in the series listed under Bos taurus was 4. Further, the IC50 at 72 h in series [25] was 232 nM.
